Test [1] addresses GABA A receptor alpha-3/beta-2/gamma-2 (Homo sapiens) (UniProt P47870+P18507+P34903). As to the kind of experiment: Positive allosteric modulation of recombinant wild type GABAA receptor alpha3beta2gamma2S (unknown origin) expressed in HEK293 cells assessed as potentiation of GABA induced chloride current response relative to 30 uM GABA. Type of test: cell-based.
A short description of test [2]: Positive allosteric modulation of recombinant wild type GABAA receptor alpha4beta2gamma2S (unknown origin) expressed in HEK293 cells assessed as potentiation of GABA induced chloride current response treated every 30 secs measured for 2 to 3 secs by patch clamp method. Particulars: Homo sapiens. In kind it is cell-based. In general terms: In patch-clamp work, channel activity is measured electrically.

For test [3], the target named is GABA A receptor alpha-2/beta-2/gamma-2 (Homo sapiens) (UniProt P47870+P18507+P47869). As to the kind of experiment: Positive allosteric modulation of recombinant wild type GABAA receptor alpha2beta2gamma2S (unknown origin) expressed in HEK293 cells assessed as potentiation of GABA induced chloride current response relative to GABA. Type of test: cell-based.
For another test, the system named is HEK293. As to the kind of experiment: Positive allosteric modulation of recombinant wild type GABAA receptor alpha4beta2gamma2S (unknown origin) expressed in HEK293 cells assessed as potentiation of GABA induced chloride current response relative to GABA. In kind it is cell-based. Particulars: Homo sapiens.
The target of test [4] is GABA A receptor alpha-2/beta-2/gamma-2 (Homo sapiens, UniProt P18507+P47869+P47870). As to the kind of experiment: Positive allosteric modulation of recombinant wild type GABAA receptor alpha2beta2gamma2S (unknown origin) expressed in HEK293 cells assessed as potentiation of GABA induced chloride current response treated every 30 secs measured for 2 to 3 secs by patch clamp method. Type of test: cell-based.

The target in test [5] is GABA A receptor alpha-3/beta-2/gamma-2 (Homo sapiens, UniProt P18507+P34903+P47870). Briefly: Positive allosteric modulation of recombinant wild type GABAA receptor alpha3beta2gamma2S (unknown origin) expressed in HEK293 cells assessed as potentiation of GABA induced chloride current response treated every 30 secs measured for 2 to 3 secs by patch clamp method. Type of test: cell-based.

In test [6] the target is Glycine receptor alpha-3/beta (Homo sapiens, UniProt O75311+P48167). As to the kind of experiment: Inhibition of recombinant human glycine receptor alpha3beta expressed in HEK293 cells. In kind it is cell-based.
Chain of Glycine receptor alpha-3/beta (O75311 whole entry): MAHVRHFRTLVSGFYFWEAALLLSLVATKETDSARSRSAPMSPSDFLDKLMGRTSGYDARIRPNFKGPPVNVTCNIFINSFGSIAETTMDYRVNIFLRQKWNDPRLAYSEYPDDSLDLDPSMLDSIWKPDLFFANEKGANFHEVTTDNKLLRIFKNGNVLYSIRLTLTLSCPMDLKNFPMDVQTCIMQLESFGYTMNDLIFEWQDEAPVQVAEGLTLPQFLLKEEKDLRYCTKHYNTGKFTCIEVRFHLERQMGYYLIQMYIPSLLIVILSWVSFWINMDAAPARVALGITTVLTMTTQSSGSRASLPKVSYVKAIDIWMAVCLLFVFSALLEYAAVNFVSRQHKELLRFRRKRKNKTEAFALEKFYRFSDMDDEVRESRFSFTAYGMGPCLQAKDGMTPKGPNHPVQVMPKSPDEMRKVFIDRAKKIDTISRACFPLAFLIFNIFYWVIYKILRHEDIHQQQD
Chain of Glycine receptor alpha-3/beta (P48167 whole entry): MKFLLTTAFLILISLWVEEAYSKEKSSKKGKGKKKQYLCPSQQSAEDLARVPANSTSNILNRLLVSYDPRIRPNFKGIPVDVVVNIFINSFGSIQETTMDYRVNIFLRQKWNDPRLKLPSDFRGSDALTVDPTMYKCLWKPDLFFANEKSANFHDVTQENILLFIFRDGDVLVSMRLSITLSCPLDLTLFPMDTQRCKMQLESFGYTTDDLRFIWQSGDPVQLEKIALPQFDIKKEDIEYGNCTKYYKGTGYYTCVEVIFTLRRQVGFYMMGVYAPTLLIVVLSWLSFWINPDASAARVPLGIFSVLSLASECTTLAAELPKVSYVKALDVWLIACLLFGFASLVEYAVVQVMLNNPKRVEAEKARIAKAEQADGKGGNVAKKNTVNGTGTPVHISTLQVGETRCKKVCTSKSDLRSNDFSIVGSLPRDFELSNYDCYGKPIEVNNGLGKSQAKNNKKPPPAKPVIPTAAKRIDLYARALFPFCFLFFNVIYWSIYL
The target in test [7] is T1, Glycine receptor subunit alpha-1 (Homo sapiens) (UniProt P23415).
T1 sequence (whole entry): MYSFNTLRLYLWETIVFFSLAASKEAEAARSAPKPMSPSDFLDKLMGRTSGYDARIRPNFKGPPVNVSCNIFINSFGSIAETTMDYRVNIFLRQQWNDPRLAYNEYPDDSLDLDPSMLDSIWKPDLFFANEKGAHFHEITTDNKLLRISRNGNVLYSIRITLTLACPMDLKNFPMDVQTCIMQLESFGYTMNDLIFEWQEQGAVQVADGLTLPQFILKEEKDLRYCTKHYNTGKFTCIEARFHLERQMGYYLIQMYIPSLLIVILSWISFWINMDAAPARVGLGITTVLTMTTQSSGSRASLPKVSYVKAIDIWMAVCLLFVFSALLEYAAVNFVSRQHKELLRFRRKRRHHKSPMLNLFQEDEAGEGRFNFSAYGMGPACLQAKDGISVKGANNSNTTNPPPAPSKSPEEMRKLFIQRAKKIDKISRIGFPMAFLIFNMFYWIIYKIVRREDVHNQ
As to the kind of experiment: Positive allosteric modulation of recombinant human glycine receptor alpha1 expressed in HEK293 cells assessed as potentiation of glycine-induced current at -60 mV holding potential by whole cell patch-clamp method relative to 10 uM glycine. Type of test: cell-based.

Test [8] has as its target T2, Glycine receptor subunit alpha-1 (Homo sapiens, UniProt P23415).
T2 sequence (P23415 whole entry): T1 sequence (whole entry)
As to the kind of experiment: Positive allosteric modulation of recombinant human glycine receptor alpha1 expressed in HEK293 cells assessed as increase in glycine-induced current at -60 mV holding potential by whole cell patch-clamp method. Type of test: cell-based.

Test [9] concerns the target Glycine receptor subunit alpha-2/beta (Homo sapiens, UniProt P23416+P48167). Briefly: Inhibition of recombinant human glycine receptor alpha2beta expressed in HEK293 cells. Type of test: cell-based.
Test [10] has as its target Glycine receptor (alpha-1/beta) (Homo sapiens, UniProt P23415+P48167). Briefly: Inhibition of recombinant human glycine receptor alpha1beta expressed in HEK293 cells. In kind it is cell-based.
The target of test [11] is Gamma-aminobutyric acid receptor subunit alpha-1/beta-3/gamma-2 (Rattus norvegicus, UniProt P18508+P62813+P63079). Briefly: Displacement of [3H]-flunitrazepam from recombinant rat GABAA receptor alpha1beta3gamma2S expressed in HEK293 cell membranes after 90 mins by liquid scintillation counting method. In general terms: Displacement assays read how much labelled ligand stays bound in the presence of the test substance.
Chain of Gamma-aminobutyric acid receptor subunit alpha-1/beta-3/gamma-2 (P18508 whole entry): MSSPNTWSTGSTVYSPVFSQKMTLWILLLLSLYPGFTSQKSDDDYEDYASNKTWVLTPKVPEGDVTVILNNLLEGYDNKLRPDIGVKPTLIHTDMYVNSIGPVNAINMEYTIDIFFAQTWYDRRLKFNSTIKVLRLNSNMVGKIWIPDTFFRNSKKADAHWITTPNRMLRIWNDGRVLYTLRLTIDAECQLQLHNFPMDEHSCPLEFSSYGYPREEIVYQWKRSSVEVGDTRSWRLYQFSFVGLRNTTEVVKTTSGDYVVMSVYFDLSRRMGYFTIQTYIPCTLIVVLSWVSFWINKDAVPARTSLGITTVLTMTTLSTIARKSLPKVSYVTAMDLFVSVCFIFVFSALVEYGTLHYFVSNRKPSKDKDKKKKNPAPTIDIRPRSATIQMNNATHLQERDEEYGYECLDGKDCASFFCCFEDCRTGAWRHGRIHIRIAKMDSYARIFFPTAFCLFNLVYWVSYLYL
Chain of Gamma-aminobutyric acid receptor subunit alpha-1/beta-3/gamma-2 (P62813 whole entry): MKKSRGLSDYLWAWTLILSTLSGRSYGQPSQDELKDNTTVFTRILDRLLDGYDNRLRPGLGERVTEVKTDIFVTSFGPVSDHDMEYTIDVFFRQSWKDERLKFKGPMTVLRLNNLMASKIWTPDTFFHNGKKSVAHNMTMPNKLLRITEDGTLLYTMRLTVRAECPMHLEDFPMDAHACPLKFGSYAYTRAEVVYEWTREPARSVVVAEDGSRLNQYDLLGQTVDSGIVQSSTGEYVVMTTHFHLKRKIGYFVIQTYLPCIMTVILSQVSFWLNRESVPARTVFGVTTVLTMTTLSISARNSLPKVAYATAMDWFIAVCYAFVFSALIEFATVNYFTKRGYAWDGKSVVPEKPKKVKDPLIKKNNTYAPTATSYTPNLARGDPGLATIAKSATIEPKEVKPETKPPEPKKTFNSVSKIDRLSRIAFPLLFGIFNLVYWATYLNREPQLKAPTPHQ
Chain of Gamma-aminobutyric acid receptor subunit alpha-1/beta-3/gamma-2 (P63079 whole entry): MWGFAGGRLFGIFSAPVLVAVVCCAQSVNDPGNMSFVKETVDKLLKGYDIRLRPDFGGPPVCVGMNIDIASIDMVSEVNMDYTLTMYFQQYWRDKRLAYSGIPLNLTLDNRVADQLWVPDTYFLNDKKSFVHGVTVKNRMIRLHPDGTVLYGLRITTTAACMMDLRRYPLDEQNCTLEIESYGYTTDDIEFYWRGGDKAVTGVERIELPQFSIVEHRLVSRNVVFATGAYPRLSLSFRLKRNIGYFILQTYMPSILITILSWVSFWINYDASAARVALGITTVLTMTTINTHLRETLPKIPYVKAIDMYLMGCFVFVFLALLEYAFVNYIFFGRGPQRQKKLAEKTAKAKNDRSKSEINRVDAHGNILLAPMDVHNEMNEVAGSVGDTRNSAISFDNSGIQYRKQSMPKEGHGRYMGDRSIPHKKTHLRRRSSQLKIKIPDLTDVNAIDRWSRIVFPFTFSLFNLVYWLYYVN

The target of test [12] is Gamma-aminobutyric acid receptor subunit alpha-2/beta-3/gamma-2 (Rattus norvegicus, UniProt P18508+P23576+P63079). As to the kind of experiment: Displacement of [3H]-flunitrazepam from recombinant rat GABAA receptor alpha2beta3gamma2S expressed in HEK293 cell membranes after 90 mins by liquid scintillation counting method.
Chain of Gamma-aminobutyric acid receptor subunit alpha-2/beta-3/gamma-2 (P18508 whole entry): as the sequence (P18508 whole entry) above
Chain of Gamma-aminobutyric acid receptor subunit alpha-2/beta-3/gamma-2 (P23576 whole entry): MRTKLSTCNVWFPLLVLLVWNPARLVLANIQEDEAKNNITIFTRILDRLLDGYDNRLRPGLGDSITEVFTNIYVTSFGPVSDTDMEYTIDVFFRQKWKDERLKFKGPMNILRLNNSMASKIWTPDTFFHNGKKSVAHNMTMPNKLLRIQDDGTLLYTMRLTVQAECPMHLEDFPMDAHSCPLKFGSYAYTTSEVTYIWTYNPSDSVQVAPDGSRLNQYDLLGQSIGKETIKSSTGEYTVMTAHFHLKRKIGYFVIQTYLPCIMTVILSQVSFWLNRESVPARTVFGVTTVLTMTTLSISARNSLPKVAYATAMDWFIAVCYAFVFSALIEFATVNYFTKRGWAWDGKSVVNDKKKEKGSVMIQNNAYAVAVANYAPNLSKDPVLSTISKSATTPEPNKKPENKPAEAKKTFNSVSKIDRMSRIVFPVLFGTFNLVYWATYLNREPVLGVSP
Chain of Gamma-aminobutyric acid receptor subunit alpha-2/beta-3/gamma-2 (P63079 whole entry): as the sequence (P63079 whole entry) above
The target in test [13] is GABA A receptor alpha-5/beta-3/gamma-2 (Rattus norvegicus, UniProt P18508+P19969+P63079). Briefly: Displacement of [3H]-flunitrazepam from recombinant rat GABAA receptor alpha5beta3gamma2S expressed in HEK293 cell membranes after 90 mins by liquid scintillation counting method.
Test [14] deals with Gamma-aminobutyric acid receptor subunit alpha-3/beta-3/gamma-2 (Rattus norvegicus, UniProt P18508+P20236+P63079). As to the kind of experiment: Displacement of [3H]-flunitrazepam from recombinant rat GABAA receptor alpha3beta3gamma2S expressed in HEK293 cell membranes after 90 mins by liquid scintillation counting method.
In test [15] the target is GABA-A receptor; alpha-6/beta-3/gamma-2 (Homo sapiens) (UniProt P18507+P28472+Q16445). Briefly: Positive allosteric modulation of recombinant human GABAA receptor alpha6beta3gamma2 expressed in Xenopus oocytes assessed as potentiation of GABA induced chloride currents relative to GABA. In kind it is cell-based.
For test [16], the target named is GABA-A receptor; alpha-3/beta-3/gamma-2 (Homo sapiens) (UniProt P18507+P28472+P34903). As to the kind of experiment: Positive allosteric modulation of recombinant human GABAA receptor alpha3beta3gamma2 expressed in Xenopus laevis oocytes assessed as potentiation of GABA induced chloride currents relative to GABA. In kind it is cell-based.
Test [17] deals with T3, GABA A receptor alpha-4/beta-3/gamma-2 (Homo sapiens, UniProt P18507+P28472+P48169). As to the kind of experiment: Displacement of [3H][…] from human GABAA receptor alpha4beta3gamma2 expressed in LTK cells […]. In kind it is cell-based.
Test [18] concerns the target GABA-A receptor; alpha-5/beta-3/gamma-2 (Homo sapiens, UniProt P18507+P28472+P31644). As to the kind of experiment: Displacement of [3H]Ro15-1788 from human GABAA receptor alpha5beta3gamma2 expressed in LTK cells […]. Type of test: cell-based.
Test [19] has as its target T3, GABA A receptor alpha-4/beta-3/gamma-2. As to the kind of experiment: Positive allosteric modulation of recombinant human GABAA receptor alpha4beta3gamma2 expressed in Xenopus laevis oocytes assessed as potentiation of GABA induced chloride currents relative to GABA. Type of test: cell-based.
The target of test [20] is GABA-A receptor; alpha-2/beta-3/gamma-2 (Homo sapiens) (UniProt P18507+P28472+P47869). As to the kind of experiment: Positive allosteric modulation of recombinant human GABAA receptor alpha2beta3gamma2 expressed in Xenopus oocytes assessed as potentiation of GABA induced chloride currents relative to GABA. In kind it is cell-based.
Test [21] has as its target GABA-A receptor; alpha-2/beta-3/gamma-2 (Homo sapiens, UniProt P18507+P28472+P47869). Briefly: Displacement of [3H]Ro15-1788 from human GABAA receptor alpha2beta3gamma2 expressed in LTK cells […]. Type of test: cell-based.
For test [22], the target named is GABA-A receptor; alpha-1/beta-3/gamma-2 (Homo sapiens) (UniProt P14867+P18507+P28472). As to the kind of experiment: Positive allosteric modulation of recombinant human GABAA receptor alpha1beta3gamma2 expressed in Xenopus oocytes assessed as potentiation of GABA induced chloride current response relative to GABA. In kind it is cell-based.
In test [23] the target is GABA-A receptor; alpha-5/beta-3/gamma-2 (Homo sapiens) (UniProt P18507+P28472+P31644). Briefly: Positive allosteric modulation of recombinant human GABAA receptor alpha5beta3gamma2 expressed in Xenopus laevis oocytes assessed as potentiation of GABA induced chloride currents relative to GABA. Type of test: cell-based.
Test [24] deals with Gamma-aminobutyric acid receptor subunit alpha-1 (Rattus norvegicus, UniProt P62813). Briefly: Agonist activity at GABAA receptor in Sprague-Dawley rat forebrain membranes assessed as enhancement of [3H]muscimol binding after 2 hrs by radiometric analysis. Also on record: species or system Membrane.
The target of test [25] is Gamma-aminobutyric acid receptor subunit alpha-1 (Rattus norvegicus) (UniProt P62813). As to the kind of experiment: Agonist activity at GABAA receptor in Sprague-Dawley rat forebrain membranes assessed as enhancement of [3H]muscimol binding at 1 to 100 uM after 2 hrs by radiometric analysis relative to control. As to conditions: Membrane.

This is an account of results in ChEMBL document CHEMBL4219030, “Progress in the discovery of small molecule modulators of the Cys-loop superfamily receptors” (Bioorg Med Chem Lett, 2017).

Broadly, the EC50 is the midpoint of the concentration-response curve. The IC50 is the concentration that gives 50% inhibition. As usually defined, the Ki is a dissociation constant, usually derived from enzyme kinetics or from competition with a known ligand. The Emax is the maximal effect, on the per cent scale that the assay sets.

Chain of Glycine receptor subunit alpha-2/beta (P23416 whole entry): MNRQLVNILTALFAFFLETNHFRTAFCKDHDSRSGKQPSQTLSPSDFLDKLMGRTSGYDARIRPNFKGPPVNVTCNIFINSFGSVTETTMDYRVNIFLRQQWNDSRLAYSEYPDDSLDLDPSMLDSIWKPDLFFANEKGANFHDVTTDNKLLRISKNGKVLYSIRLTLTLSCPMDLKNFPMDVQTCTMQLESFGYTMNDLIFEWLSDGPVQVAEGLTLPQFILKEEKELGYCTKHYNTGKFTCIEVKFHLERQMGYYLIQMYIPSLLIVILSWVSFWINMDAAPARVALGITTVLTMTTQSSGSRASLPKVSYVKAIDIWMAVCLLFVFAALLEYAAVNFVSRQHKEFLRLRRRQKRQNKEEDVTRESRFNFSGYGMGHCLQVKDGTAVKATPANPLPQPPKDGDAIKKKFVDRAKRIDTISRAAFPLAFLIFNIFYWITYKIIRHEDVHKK
Chain of Glycine receptor subunit alpha-2/beta (P48167 whole entry): as the sequence (P48167 whole entry) above

For the compound `COc1ccc(C(=O)/C=C/c2cc(OC)ccc2O)cc1`, the fold change (FC) in test [1] worked out at 19.6; in [3], 13.6; with HEK293, 6.2. The EC50 in [2] is 8.1 µM; in test [4], 7.6 µM; in test [5], 17.7 µM.

With `C=C[C@]12CN(C)[C@@H]3[C@H]4CO[C@H](C[C@H]41)[C@]1(C(=O)Nc4ccccc41)[C@@H]32` [GELSEMINE], the IC50 in test [6], in test [9] and in [10] was 30 to 50 µM throughout. Also, the fold change (FC) in test [7] turned out to be 0.55. Also, in [8], the EC50 turned out to be 0.59 µM.

For `C#Cc1ccc2c(c1)C(c1ccccc1F)=N[C@H](C)c1c(C(=O)NC)ncn1-2`, the Ki in test [11] was found to be 0.85 µM; in test [12], 0.36 µM; in test [13] it was 0.055 µM; in test [14] it was 0.66 µM.

For `COc1ccc(-n2nc3c4cc(Cl)ccc4[nH]cc-3c2=O)cc1`, the fold change (FC) in test [15] was found to be 20; in [16], 5; in test [19], 2; in test [20], 8; in test [22], 10; in test [23] it was 2. Moreover, the Ki is greater than 10 µM in [17], 0.0003 µM in test [18] and greater than 10 µM in test [21].

For the compound `CCCCNC(=O)c1cc(-c2ccc(F)cc2F)ccc1O`, the EC50 in test [24] came to 15 µM. For the same compound, the Emax in test [25] came to 56%.
